Read-outs that look alike come from different tables or passages of the source.
Key:
Assay in all cases: Radiolabeled ATP kinase assay, panel of 60 kinases (Table S5)
Assay type in all cases: biochemical
[1] = target: T1, panel of 60 human kinases (Homo sapiens, UniProt P08581); settings: c-MET; 0.1 μM; 10 μM ATP; read-out: % Enzyme Activity (relative to DSMO controls)
T1 construct: purchased Reaction Biology Corp
Procedure, shortened: (§1)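 Compounds at two concentrations, 0.1 μM and 0.5 μM, were screened for inhibition of 60 kinases in cell-free assays read out by radiolabeled ATP.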

[2] = target: T2, panel of 60 human kinases (Homo sapiens, UniProt P21802); settings: FGFR2; 0.1 μM; 10 μM ATP; read-out: % Enzyme Activity (relative to DSMO controls)
T2 construct: purchased Reaction Biology Corp
Procedure, shortened: as §1

[3] = target: T3, panel of 60 human kinases (Homo sapiens, UniProt Q9UM73); settings: ALK; 0.1 μM; 10 μM ATP; read-out: % Enzyme Activity (relative to DSMO controls)
T3 construct: purchased Reaction Biology Corp
Procedure, shortened: as §1

[4] = target: T4, panel of 60 human kinases (Homo sapiens, UniProt P42684); settings: ABL2/ARG; 0.1 μM; 10 μM ATP; read-out: % Enzyme Activity (relative to DSMO controls)
T4 construct: purchased Reaction Biology Corp
Procedure, shortened: as §1

[5] = target: T5, panel of 60 human kinases (Homo sapiens, UniProt Q00535); settings: 0.1 μM, 10 μM ATP, read-out: % Enzyme Activity (relative to DSMO controls)
T5 construct: purchased Reaction Biology Corp
Procedure, shortened: as §1

[6] = target: T6, panel of 60 human kinases (Homo sapiens, UniProt P49840); settings: GSK3a; 0.1 μM; 10 μM ATP; read-out: % Enzyme Activity (relative to DSMO controls)
T6 construct: purchased Reaction Biology Corp
T6 sequence (P49840 whole entry): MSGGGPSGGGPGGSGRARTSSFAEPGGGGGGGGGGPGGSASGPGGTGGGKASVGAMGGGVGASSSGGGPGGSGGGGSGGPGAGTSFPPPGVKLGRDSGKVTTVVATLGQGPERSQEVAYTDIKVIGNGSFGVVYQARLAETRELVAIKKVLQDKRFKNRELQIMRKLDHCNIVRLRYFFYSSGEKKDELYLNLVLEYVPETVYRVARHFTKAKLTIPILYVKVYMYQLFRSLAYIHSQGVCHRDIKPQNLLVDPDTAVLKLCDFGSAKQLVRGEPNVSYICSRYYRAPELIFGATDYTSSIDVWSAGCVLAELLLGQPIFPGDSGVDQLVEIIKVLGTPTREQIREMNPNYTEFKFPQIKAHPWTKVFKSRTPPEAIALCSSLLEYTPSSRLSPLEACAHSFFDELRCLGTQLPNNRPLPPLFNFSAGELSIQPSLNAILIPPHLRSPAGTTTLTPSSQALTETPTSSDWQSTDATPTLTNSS
Procedure, shortened: as §1

[7] = target: T7, panel of 60 human kinases (Homo sapiens, UniProt O15264); settings: P38d/MAPK13; 0.1 μM; 10 μM ATP; read-out: % Enzyme Activity (relative to DSMO controls)
T7 construct: purchased Reaction Biology Corp
T7 sequence (O15264 1-365): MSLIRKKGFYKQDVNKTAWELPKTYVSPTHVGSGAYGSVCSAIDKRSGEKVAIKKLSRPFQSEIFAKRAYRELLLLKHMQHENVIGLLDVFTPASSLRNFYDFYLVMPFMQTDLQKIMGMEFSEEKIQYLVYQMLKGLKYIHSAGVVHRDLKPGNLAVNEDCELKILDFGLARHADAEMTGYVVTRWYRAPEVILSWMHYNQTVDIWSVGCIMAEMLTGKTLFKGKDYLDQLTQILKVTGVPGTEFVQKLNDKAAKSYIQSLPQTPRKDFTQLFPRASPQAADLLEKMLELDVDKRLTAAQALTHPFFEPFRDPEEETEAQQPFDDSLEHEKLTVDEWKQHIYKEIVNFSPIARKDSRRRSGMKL
Procedure, shortened: as §1

[8] = target: T8, panel of 60 human kinases (Homo sapiens, UniProt P11802); settings: 0.1 μM, 10 μM ATP, read-out: % Enzyme Activity (relative to DSMO controls)
T8 construct: purchased Reaction Biology Corp
Procedure, shortened: as §1

[9] = target: T9, panel of 60 human kinases (Homo sapiens, UniProt Q00526); settings: CDK3/cyclin E; 0.1 μM; 10 μM ATP; read-out: % Enzyme Activity (relative to DSMO controls)
T9 construct: purchased Reaction Biology Corp
Procedure, shortened: as §1

[10] = target: T10, panel of 60 human kinases (Homo sapiens, UniProt Q00534); settings: 0.1 μM, 10 μM ATP, read-out: % Enzyme Activity (relative to DSMO controls)
T10 construct: purchased Reaction Biology Corp
T10 sequence (Q00534 whole entry): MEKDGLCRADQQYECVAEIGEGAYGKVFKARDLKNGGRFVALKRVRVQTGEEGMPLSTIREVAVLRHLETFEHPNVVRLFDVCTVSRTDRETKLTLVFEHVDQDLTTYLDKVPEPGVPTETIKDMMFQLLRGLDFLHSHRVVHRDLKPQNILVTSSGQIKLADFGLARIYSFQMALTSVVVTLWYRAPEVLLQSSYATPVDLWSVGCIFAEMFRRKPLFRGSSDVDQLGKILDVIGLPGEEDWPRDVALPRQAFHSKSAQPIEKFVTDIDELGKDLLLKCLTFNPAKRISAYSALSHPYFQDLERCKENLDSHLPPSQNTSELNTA
Procedure, shortened: as §1

[11] = target: T11, panel of 60 human kinases (Homo sapiens, UniProt Q08345); settings: DDR1; 0.1 μM; 10 μM ATP; read-out: % Enzyme Activity (relative to DSMO controls)
T11 construct: purchased Reaction Biology Corp
T11 sequence (Q08345 19-913): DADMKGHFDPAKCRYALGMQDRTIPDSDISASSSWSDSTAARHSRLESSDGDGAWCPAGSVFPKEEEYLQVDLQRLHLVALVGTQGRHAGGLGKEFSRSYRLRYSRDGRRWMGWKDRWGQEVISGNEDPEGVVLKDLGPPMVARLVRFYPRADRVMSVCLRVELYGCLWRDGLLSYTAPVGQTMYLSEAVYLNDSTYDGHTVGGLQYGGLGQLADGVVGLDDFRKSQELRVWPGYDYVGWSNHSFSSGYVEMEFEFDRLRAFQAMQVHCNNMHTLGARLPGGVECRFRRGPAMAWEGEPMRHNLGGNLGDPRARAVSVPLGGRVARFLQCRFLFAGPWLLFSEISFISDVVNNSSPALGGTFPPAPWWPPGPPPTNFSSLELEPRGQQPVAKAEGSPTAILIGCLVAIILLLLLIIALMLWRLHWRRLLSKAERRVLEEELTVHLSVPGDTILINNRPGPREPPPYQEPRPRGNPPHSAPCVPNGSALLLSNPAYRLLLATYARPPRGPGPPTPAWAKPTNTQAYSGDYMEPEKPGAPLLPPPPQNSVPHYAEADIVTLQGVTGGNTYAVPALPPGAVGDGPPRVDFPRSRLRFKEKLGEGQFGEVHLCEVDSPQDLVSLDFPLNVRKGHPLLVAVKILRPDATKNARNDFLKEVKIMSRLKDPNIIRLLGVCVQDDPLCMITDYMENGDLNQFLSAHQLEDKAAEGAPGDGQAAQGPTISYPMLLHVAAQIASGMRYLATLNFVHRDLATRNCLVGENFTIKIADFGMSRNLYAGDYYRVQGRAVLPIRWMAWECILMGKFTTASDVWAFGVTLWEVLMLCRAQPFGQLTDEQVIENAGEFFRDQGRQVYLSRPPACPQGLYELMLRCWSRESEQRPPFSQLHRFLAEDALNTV
Procedure, shortened: as §1

[12] = target: T12, panel of 60 human kinases (Homo sapiens, UniProt O95819); settings: HGK/MAP4K4; 0.1 μM; 10 μM ATP; read-out: % Enzyme Activity (relative to DSMO controls)
T12 construct: purchased Reaction Biology Corp
Procedure, shortened: as §1

[13] = target: T13, panel of 60 human kinases (Homo sapiens, UniProt Q9Y4K4); settings: KHS/MAPK4K5; 0.1 μM; 10 μM ATP; read-out: % Enzyme Activity (relative to DSMO controls)
T13 construct: purchased Reaction Biology Corp
T13 sequence (Q9Y4K4 whole entry): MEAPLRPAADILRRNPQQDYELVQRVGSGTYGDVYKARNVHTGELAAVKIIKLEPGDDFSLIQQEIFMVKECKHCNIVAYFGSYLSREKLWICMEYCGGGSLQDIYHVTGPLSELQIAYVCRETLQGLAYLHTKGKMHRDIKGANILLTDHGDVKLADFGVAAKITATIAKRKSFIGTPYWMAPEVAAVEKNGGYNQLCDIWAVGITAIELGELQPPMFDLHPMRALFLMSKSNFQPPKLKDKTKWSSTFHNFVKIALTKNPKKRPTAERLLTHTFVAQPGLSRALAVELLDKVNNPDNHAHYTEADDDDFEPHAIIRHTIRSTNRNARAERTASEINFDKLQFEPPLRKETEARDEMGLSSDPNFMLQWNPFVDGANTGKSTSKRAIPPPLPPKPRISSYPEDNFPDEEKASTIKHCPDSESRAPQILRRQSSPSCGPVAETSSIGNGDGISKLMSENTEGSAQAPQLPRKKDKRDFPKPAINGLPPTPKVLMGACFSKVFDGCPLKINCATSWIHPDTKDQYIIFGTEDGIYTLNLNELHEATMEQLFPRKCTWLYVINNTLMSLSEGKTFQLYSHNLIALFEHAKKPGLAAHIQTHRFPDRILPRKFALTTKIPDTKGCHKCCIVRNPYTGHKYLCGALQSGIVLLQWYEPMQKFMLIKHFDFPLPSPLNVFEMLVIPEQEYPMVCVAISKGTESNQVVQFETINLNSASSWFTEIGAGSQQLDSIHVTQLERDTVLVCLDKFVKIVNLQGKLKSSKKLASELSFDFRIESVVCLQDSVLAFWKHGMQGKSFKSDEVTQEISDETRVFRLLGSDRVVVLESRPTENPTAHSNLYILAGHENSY
Procedure, shortened: as §1

[14] = target: T14, panel of 60 human kinases (Homo sapiens, UniProt P00519); settings: ABL1; 0.1 μM; 10 μM ATP; read-out: % Enzyme Activity (relative to DSMO controls)
T14 construct: purchased Reaction Biology Corp
T14 sequence (P00519 whole entry): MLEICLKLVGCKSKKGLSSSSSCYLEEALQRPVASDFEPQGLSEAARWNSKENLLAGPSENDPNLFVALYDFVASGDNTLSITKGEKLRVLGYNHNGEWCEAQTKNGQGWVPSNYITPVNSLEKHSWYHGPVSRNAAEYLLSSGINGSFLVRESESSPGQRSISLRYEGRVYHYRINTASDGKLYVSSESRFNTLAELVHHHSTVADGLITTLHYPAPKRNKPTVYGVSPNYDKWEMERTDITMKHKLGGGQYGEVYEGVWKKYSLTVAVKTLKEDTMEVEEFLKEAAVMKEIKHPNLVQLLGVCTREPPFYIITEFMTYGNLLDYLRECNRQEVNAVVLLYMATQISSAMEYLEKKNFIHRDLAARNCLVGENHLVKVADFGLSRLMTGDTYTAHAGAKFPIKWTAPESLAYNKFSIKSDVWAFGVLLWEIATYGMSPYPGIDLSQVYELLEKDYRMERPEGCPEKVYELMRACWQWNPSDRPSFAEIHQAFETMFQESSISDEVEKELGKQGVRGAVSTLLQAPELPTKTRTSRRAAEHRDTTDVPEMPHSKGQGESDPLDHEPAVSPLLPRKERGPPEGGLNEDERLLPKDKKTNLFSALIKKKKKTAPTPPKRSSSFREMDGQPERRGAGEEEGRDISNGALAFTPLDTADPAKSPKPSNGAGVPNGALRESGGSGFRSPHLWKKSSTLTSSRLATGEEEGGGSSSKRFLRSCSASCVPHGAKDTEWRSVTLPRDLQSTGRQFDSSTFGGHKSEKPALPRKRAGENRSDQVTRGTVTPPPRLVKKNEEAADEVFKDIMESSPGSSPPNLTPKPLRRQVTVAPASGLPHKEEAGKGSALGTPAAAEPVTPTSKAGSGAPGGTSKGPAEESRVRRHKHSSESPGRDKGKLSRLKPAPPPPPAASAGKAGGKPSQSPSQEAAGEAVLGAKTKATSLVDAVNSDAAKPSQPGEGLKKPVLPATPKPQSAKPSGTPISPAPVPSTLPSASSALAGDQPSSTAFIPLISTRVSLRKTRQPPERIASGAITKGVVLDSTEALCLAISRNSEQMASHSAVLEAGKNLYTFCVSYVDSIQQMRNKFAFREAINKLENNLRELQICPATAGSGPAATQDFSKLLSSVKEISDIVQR
Procedure, shortened: as §1

T1 sequence (P08581 25-1390): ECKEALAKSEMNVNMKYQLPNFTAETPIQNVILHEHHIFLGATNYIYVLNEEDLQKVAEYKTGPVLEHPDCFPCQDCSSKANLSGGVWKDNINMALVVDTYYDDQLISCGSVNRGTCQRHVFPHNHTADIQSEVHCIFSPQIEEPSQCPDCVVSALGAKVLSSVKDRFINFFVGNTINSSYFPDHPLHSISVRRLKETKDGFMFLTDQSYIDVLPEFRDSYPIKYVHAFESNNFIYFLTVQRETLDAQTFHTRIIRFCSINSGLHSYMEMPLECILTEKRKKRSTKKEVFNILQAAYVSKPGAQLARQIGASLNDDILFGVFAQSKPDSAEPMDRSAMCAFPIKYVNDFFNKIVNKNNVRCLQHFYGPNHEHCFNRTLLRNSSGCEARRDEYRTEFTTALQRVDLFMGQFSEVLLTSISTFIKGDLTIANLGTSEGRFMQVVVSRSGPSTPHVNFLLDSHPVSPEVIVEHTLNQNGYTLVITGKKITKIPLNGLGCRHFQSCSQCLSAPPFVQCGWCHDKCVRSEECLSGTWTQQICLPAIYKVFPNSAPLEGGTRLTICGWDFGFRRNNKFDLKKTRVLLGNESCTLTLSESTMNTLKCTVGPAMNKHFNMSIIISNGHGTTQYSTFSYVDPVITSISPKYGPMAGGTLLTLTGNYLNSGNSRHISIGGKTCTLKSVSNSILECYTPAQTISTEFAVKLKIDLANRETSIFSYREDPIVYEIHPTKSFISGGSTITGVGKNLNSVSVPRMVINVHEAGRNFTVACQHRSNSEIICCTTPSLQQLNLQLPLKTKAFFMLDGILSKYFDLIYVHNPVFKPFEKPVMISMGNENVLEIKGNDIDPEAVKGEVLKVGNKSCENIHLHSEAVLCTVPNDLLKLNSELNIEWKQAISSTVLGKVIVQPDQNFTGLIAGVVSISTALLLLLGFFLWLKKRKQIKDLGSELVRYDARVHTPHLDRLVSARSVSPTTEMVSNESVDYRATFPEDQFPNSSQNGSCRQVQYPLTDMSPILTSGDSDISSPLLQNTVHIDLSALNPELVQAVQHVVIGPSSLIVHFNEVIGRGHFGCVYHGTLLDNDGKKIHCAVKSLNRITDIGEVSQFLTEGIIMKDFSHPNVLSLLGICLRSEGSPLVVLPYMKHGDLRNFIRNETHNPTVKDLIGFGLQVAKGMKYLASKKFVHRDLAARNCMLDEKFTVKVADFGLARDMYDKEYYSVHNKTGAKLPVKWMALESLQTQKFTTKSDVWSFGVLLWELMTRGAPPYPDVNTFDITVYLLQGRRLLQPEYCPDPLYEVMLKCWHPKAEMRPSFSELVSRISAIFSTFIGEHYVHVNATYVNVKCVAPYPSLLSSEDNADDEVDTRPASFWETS

## COc1ccccc1-c1c[nH]c2ncc(-c3ccc(CN4CCN(C)CC4)cc3)cc12 [Compound 7at, 3-(2-Methoxyphenyl)-5-(4-((4-methylpiperazin-1-yl)methyl)phenyl)-1H-pyrrolo[2,3-b]pyridine]
[1]
  remaining activity at 0.1 µM: 86.8%
[2]
  remaining activity at 0.1 µM: 83.4%
[3]
  remaining activity at 0.1 µM: 77.8%
[4]
  remaining activity at 0.1 µM: 21.8%
[5]; CDK5/p25
  remaining activity at 0.1 µM: 43.1%
[5]; CDK5/p35
  remaining activity at 0.1 µM: 31.9%
[6]
  remaining activity at 0.1 µM: 82.8%
[7]
  remaining activity at 0.1 µM: 104%
[8]; CDK4/cyclin D1
  remaining activity at 0.1 µM: 14.1%
[8]; CDK4/cyclin D3
  remaining activity at 0.1 µM: 24.4%
[9]
  remaining activity at 0.1 µM: 72.7%
[10]; CDK6/cyclin D1
  remaining activity at 0.1 µM: 7.23%
[10]; CDK6/cyclin D3
  remaining activity at 0.1 µM: 46%
[11]
  remaining activity at 0.1 µM: 68.1%
[12]
  remaining activity at 0.1 µM: 9.52%
[13]
  remaining activity at 0.1 µM: 3.35%
[14]
  remaining activity at 0.1 µM: 19%

## CN1CCN(Cc2ccc(-c3cnc4[nH]cc(-c5cccc(Cl)c5)c4c3)cc2)CC1 [Compound 7ad, 3-(3-Chlorophenyl)-5-(4-((4-methylpiperazin-1-yl)methyl)phenyl)-1H-pyrrolo[2,3-b]pyridine]
[1]
  remaining activity at 0.1 µM: 86.2%
[2]
  remaining activity at 0.1 µM: 77.6%
[3]
  remaining activity at 0.1 µM: 108%
[4]
  remaining activity at 0.1 µM: 83.7%
[5]; CDK5/p25
  remaining activity at 0.1 µM: 84.4%
[5]; CDK5/p35
  remaining activity at 0.1 µM: 83.9%
[6]
  remaining activity at 0.1 µM: 97.1%
[7]
  remaining activity at 0.1 µM: 119%
[8]; CDK4/cyclin D1
  remaining activity at 0.1 µM: 70.9%
[8]; CDK4/cyclin D3
  remaining activity at 0.1 µM: 58.1%
[9]
  remaining activity at 0.1 µM: 95.5%
[10]; CDK6/cyclin D1
  remaining activity at 0.1 µM: 45.8%
[10]; CDK6/cyclin D3
  remaining activity at 0.1 µM: 58.8%
[11]
  remaining activity at 0.1 µM: 82%
[12]
  remaining activity at 0.1 µM: 1.36%
[13]
  remaining activity at 0.1 µM: 5.8%
[14]
  remaining activity at 0.1 µM: 77.3%

## CN1CCN(Cc2ccc(-c3cnc4[nH]cc(-c5ccoc5)c4c3)cc2)CC1 [Compound 7w, 3-(Furan-3-yl)-5-(4-((4-methylpiperazin-1-yl)methyl)phenyl)-1H-pyrrolo[2,3-b]pyridine]
[1]
  remaining activity at 0.1 µM: 96.6%
[2]
  remaining activity at 0.1 µM: 77.8%
[3]
  remaining activity at 0.1 µM: 89.7%
[4]
  remaining activity at 0.1 µM: 77.6%
[5]; CDK5/p25
  remaining activity at 0.1 µM: 89.4%
[5]; CDK5/p35
  remaining activity at 0.1 µM: 82.2%
[6]
  remaining activity at 0.1 µM: 75.3%
[7]
  remaining activity at 0.1 µM: 112%
[8]; CDK4/cyclin D1
  remaining activity at 0.1 µM: 73.4%
[8]; CDK4/cyclin D3
  remaining activity at 0.1 µM: 72.2%
[9]
  remaining activity at 0.1 µM: 93.7%
[10]; CDK6/cyclin D1
  remaining activity at 0.1 µM: 58.5%
[10]; CDK6/cyclin D3
  remaining activity at 0.1 µM: 68.4%
[11]
  remaining activity at 0.1 µM: 75.2%
[12]
  remaining activity at 0.1 µM: 2.85%
[13]
  remaining activity at 0.1 µM: 15.1%
[14]
  remaining activity at 0.1 µM: 64.8%

## CN1CCN(Cc2ccc(-c3cnc4[nH]cc(-c5ccc6c(c5)OCCO6)c4c3)cc2)CC1 [Compound 7d, 3-(2,3-Dihydrobenzo[b][1,4]dioxin-6-yl)-5-(4-((4-methylpiperazin-1-yl)methyl)phenyl)-1H-pyrrolo[2,3-b]pyridine]
[1]
  remaining activity at 0.1 µM: 110%
[2]
  remaining activity at 0.1 µM: 70.4%
[3]
  remaining activity at 0.1 µM: 73.8%
[4]
  remaining activity at 0.1 µM: 72.7%
[5]; CDK5/p25
  remaining activity at 0.1 µM: 16.4%
[5]; CDK5/p35
  remaining activity at 0.1 µM: 14.2%
[6]
  remaining activity at 0.1 µM: 13.6%
[7]
  remaining activity at 0.1 µM: 98.6%
[8]; CDK4/cyclin D1
  remaining activity at 0.1 µM: 19.4%
[8]; CDK4/cyclin D3
  remaining activity at 0.1 µM: 26.7%
[9]
  remaining activity at 0.1 µM: 76.7%
[10]; CDK6/cyclin D1
  remaining activity at 0.1 µM: 15.1%
[10]; CDK6/cyclin D3
  remaining activity at 0.1 µM: 52.3%
[11]
  remaining activity at 0.1 µM: 57.4%
[12]
  remaining activity at 0.1 µM: 2.05%
[13]
  remaining activity at 0.1 µM: 4.17%
[14]
  remaining activity at 0.1 µM: 74.5%

From patent US12227500B2, “Substituted pyrrolo[2,3-b]pyridines for suppressing toxic endoplasmic reticulum stress” (THE TRUSTEES OF COLUMBIA UNIVERSITY IN THE CITY OF NEW YORK, priority 2018, dated 2025)
